Common to all, as to assay type: protein assay
Assay [1] addresses T1, Alpha-1,2-mannosidase (BT_3990) (Bacteroides thetaiotaomicron) (UniProt Q8A0N1).
T1 sequence (whole entry): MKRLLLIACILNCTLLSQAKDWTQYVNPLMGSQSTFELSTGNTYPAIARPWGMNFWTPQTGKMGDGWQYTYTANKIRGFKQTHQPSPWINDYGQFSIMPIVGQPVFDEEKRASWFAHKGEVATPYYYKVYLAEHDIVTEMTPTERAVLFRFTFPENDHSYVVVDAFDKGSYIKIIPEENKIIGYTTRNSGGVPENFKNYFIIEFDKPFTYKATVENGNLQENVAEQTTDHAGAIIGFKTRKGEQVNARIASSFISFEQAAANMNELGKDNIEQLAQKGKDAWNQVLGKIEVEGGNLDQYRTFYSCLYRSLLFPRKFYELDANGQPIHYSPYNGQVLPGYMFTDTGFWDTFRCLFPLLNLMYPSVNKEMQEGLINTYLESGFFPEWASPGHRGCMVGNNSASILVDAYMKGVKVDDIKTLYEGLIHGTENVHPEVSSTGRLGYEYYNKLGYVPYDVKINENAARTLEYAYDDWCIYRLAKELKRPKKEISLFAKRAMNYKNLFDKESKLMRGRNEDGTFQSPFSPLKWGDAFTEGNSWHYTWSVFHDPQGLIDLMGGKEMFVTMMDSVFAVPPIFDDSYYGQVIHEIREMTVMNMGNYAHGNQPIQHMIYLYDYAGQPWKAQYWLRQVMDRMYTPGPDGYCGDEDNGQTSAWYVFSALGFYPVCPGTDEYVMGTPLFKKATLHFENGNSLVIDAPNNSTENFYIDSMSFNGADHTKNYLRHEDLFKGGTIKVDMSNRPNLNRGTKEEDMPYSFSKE
Put plainly: Activity of Bacteroides thetaiotaomicron GH92 alpha-mannosidase 3990 assessed as recovery of enzyme activity at 1 mM in absence of metal and in presence of 5 mM EDTA in 100 mM pH 7 MOPS buffer relative to enzyme activity in presence of calcium.

In assay [2] the target is T1, Alpha-1,2-mannosidase (BT_3990) (Bacteroides thetaiotaomicron). Briefly: Activity of Bacteroides thetaiotaomicron GH92 alpha-mannosidase 3990 assessed as recovery of enzyme activity at 1 mM in presence of 7 mM Mn(2+) ions and in presence of 5 mM EGTA in 100 mM pH 7 MOPS buffer relative to enzyme activity in presence of calcium.
Assay [3] addresses T2, Alpha-1,2-mannosidase (BT_2199) (Bacteroides thetaiotaomicron) (UniProt Q8A5N9).
T2 sequence (whole entry): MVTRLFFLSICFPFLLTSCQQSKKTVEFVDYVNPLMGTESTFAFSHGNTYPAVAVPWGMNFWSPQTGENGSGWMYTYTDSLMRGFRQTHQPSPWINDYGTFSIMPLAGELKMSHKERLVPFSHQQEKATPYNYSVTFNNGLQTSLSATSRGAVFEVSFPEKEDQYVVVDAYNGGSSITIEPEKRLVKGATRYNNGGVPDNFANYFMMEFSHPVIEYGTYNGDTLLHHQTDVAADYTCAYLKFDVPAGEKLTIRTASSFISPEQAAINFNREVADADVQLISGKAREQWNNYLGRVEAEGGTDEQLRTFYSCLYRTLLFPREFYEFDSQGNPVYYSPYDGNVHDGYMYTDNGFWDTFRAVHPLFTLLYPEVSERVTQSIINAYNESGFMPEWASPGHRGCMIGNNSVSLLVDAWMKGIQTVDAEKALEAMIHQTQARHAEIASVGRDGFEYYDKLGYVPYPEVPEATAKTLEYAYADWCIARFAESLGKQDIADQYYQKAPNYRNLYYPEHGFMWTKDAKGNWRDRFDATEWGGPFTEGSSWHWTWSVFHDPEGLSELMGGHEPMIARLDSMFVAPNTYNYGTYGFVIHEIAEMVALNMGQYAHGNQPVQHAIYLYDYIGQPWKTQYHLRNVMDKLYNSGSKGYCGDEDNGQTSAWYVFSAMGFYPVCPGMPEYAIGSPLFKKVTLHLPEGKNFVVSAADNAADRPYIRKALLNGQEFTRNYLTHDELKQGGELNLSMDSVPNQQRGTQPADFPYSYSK
Put plainly: Activity of Bacteroides thetaiotaomicron GH92 alpha-mannosidase 2199 assessed as recovery of enzyme activity at 1 mM in presence of 7 mM Ba(2+) ions and in presence of 5 mM EGTA in 100 mM pH 7 MOPS buffer relative to enzyme activity in presence of calcium.

Assay [4] deals with T1, Alpha-1,2-mannosidase (BT_3990) (Bacteroides thetaiotaomicron). Put plainly: Activity of Bacteroides thetaiotaomicron GH92 alpha-mannosidase 3990 assessed as recovery of enzyme activity at 1 mM in presence of 7 mM Ca(2+) ions and in presence of 5 mM EGTA in 100 mM pH 7 MOPS buffer relative to enzyme activity in presence of calcium.
Assay [5] has the same target. Put plainly: Activity of Bacteroides thetaiotaomicron GH92 alpha-mannosidase 3990 assessed as recovery of enzyme activity at 1 mM in presence of 7 mM Be(2+) ions and in presence of 5 mM EDTA in 100 mM pH 7 MOPS buffer relative to enzyme activity in presence of calcium.
Assay [6] has as its target T2, Alpha-1,2-mannosidase (BT_2199) (Bacteroides thetaiotaomicron). Briefly: Activity of Bacteroides thetaiotaomicron GH92 alpha-mannosidase 2199 assessed as recovery of enzyme activity at 1 mM in presence of 7 mM Mg(2+) ions and in presence of 5 mM EDTA in 100 mM pH 7 MOPS buffer relative to enzyme activity in presence of calcium.
Assay [7] has the same target. Put plainly: Activity of Bacteroides thetaiotaomicron GH92 alpha-mannosidase 2199 assessed as recovery of enzyme activity at 1 mM in presence of 7 mM Zn(2+) ions and in presence of 5 mM EDTA in 100 mM pH 7 MOPS buffer relative to enzyme activity in presence of calcium.
The target in assay [8] is T1, Alpha-1,2-mannosidase (BT_3990) (Bacteroides thetaiotaomicron). Put plainly: Activity of Bacteroides thetaiotaomicron GH92 alpha-mannosidase 3990 assessed as recovery of enzyme activity at 1 mM in presence of 7 mM Sc(3+) ions and in presence of 5 mM EGTA in 100 mM pH 7 MOPS buffer relative to enzyme activity in presence of calcium.
Assay [9] addresses T2, Alpha-1,2-mannosidase (BT_2199) (Bacteroides thetaiotaomicron). Briefly: Activity of Bacteroides thetaiotaomicron GH92 alpha-mannosidase 2199 assessed as recovery of enzyme activity at 1 mM in presence of 7 mM Sr(2+) ions and in presence of 5 mM EGTA in 100 mM pH 7 MOPS buffer relative to enzyme activity in presence of calcium.
The target in assay [10] is T1, Alpha-1,2-mannosidase (BT_3990) (Bacteroides thetaiotaomicron). Briefly: Activity of Bacteroides thetaiotaomicron GH92 alpha-mannosidase 3990 assessed as recovery of enzyme activity at 1 mM in presence of 7 mM Co(2+) ions and in presence of 5 mM EDTA in 100 mM pH 7 MOPS buffer relative to enzyme activity in presence of calcium.
Assay [11] has as its target T2, Alpha-1,2-mannosidase (BT_2199) (Bacteroides thetaiotaomicron). Put plainly: Activity of Bacteroides thetaiotaomicron GH92 alpha-mannosidase 2199 assessed as recovery of enzyme activity at 1 mM in presence of 7 mM Sc(3+) ions and in presence of 5 mM EGTA in 100 mM pH 7 MOPS buffer relative to enzyme activity in presence of calcium.
The target in assay [12] is T1, Alpha-1,2-mannosidase (BT_3990) (Bacteroides thetaiotaomicron). Briefly: Activity of Bacteroides thetaiotaomicron GH92 alpha-mannosidase 3990 assessed as recovery of enzyme activity at 1 mM in presence of 7 mM Ca(2+) ions and in presence of 5 mM EDTA in 100 mM pH 7 MOPS buffer relative to enzyme activity in presence of calcium.

For the molecule `O=[N+]([O-])c1ccc(O[C@H]2O[C@H](CO)[C@@H](O)[C@H](O)[C@@H]2O)cc1`, the Activity was 0% in [1]; 6% in assay [2]; 0% in [3]; 100% in assay [4]; 0% in assay [5]; 0% in [6]. Also, the Activity in [7] is 0%; in [8] it was 0%; in assay [9] it was 30%; in [10], 12%; in assay [11], 0%; in assay [12] it was 100%.

The values above are taken from ChEMBL document CHEMBL1250451, “Mechanistic insights into a Ca2+-dependent family of alpha-mannosidases in a human gut symbiont” (Nat Chem Biol, 2010).
